{"source": "patent US20230190717A1", "about": "“P38 GAMMA INHIBITORS AND METHOD OF USE THEREOF” (City of Hope, priority 2017, published 2023)", "key": {"[1]": {"molecular_target": "T1, human recombinant p38 α protein (Homo sapiens, UniProt Q16539)", "T1 construct": "human recombinant p38 α, β, γ or δ protein (active full-length); purchased SignalChem; host or cells: baculovirus in Sf9 insect cells", "T1 sequence (Q16539 whole entry)": "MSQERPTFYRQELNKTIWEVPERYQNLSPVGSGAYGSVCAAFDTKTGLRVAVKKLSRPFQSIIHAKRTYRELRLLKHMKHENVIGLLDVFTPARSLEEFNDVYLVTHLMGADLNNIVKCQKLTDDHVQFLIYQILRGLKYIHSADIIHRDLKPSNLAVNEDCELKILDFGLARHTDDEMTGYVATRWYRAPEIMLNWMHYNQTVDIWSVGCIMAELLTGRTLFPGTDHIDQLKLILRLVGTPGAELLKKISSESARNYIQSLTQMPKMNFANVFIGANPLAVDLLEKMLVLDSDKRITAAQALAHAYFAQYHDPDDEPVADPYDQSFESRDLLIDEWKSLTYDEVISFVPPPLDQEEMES", "assay": "ADP-Glo in vitro kinase assay, p38α", "format": "biochemical", "procedure": "Kinase assay in vitro: Kinase enzyme assays in vitro were performed using ADP-Glo kit (Promega, Wis.). The luminescent ADP-Glo kinase assay measures ADP produced from ATP consumption in a kinase enzyme reaction. All compounds have been tested and shown no inhibition to luciferase activities. Briefly, in this experiment, human recombinant p38 α, β, γ or δ protein (active full-length) expressed by baculovirus in sf9 insect cells (SignalChem, Vancouver, Canada) was homogenized in wells of white opaque 96-well microplates with the kinase buffer that consisted of 40 mM Tris-HCl (pH 7.5), 20 mM MgCl2, 0.1 mg/mL BSA and 50 μM DTT. […] Next, synthetic peptide substrates ([…]) were added to the mixture at final concentration of 0.2 μg/μL, followed by adding ATP at various concentrations. The 50 μL mixture was reacted at room temperature for 60 min. […]\nIn vitro kinase assay (ADP-GLO): We identified p38γ inhibitors using in vitro kinase assay by screening a library of kinase inhibitors: The library consists of 244 compounds on three plates (EMD Cat #539744, #539745, and #539746) that are mostly ATP mimics. […] IC50 values were determined using […] software (Biosoft, Cambridge, United Kingdom)."}, "Hut78 cells [2]": {"test_system": "Hut78 cells", "assay": "CellTiterGlo cell viability, Hut78", "format": "cell-based, human", "description": "Viability assays using trypan blue exclusion and CellTiterGlo Cell Viability Assay: Cell viability was calculated by diluting cell suspensions 1:1 in 0.4% TRYPAN BLUE solution (Sigma, St. Louis, Mo.) and counting the number of viable cells using a TC20™ automated cell counter (Bio-Rad, Irvine, Calif.) that automatically excludes the number of non-viable cells stained with trypan blue per total cells. […] All data points are an average of triplicate experiments.\nAbsorbance was monitored at 490 nm using an automated BMG PHERAstar plate reader (BMG Labtech). […] All experiments are repeated in three independent experiments and data represented are the average of triplicate experiments."}, "SS patient cells": {"test_system": "SS patient cells", "assay": "Cell viability, SS patient cells", "format": "cell-based, human", "details": "SS patient cells (n=2), 100 nM", "procedure": "Compound, Samples, and Cell Culture: […] Isolation of PBMCs or CD4^+T cells from both patients and healthy donors and culture of CTCL cell lines (Hut78, HH, and H9) were performed as previously described. […] IC50 values were determined using […] software (Biosoft)."}, "Hut78 cells [3]": {"test_system": "Hut78 cells", "assay": "NanoString RNA gene expression profiling, Hut78", "format": "cell-based, human", "details": "50 nM, 10 h", "procedure": "All samples were validated. Data were analyzed using nSolver 3.0 digital analyzer software and R program."}, "p38γ": {"test_system": "p38γ", "assay": "p38γ mRNA level and protein expression (Western blot)", "format": "cell-based", "details": "4 hr", "source_text": "qRT-PCR (real-time quantitative reverse transcription PCR): Total RNA was generated using TRIZOL reagent (Life Technologies, Carlsbad, Calif.) followed by double DNase treatment and column purification using Qiagen RNeasy Clean-up (Qiagen, Germantown, Md.). The Invitrogen […] III First-Strand Synthesis System was used for cDNA synthesis and TaqMan 5700 Sequence Detection System (Applied Biosystems, Foster City, Calif.) were used for qRT-PCR. All PCR reactions were run in triplicate. The amplified transcripts were quantified using the comparative CT method as described. cDNA and primers for MAPK11, 12, 13, and 14 and GAPDH (Table 9) were added to SYBR GREEN PCR Master Mix (SYBR Green I Dye, […]® DNA polymerase, dNTPs with dUTP and optimal buffer components; Applied Biosystems) and subjected to PCR amplification (1 cycle at 95° C. for 3 min; 35 cycles at 95° C. for 15 s and 55° C. for 30 s; 1 cycle at 50° C. for 2 min)."}, "PI3K p110γ": {"molecular_target": "PI3K p110γ (Homo sapiens, UniProt P48736)", "sequence (P48736 whole entry, canonical isoform)": "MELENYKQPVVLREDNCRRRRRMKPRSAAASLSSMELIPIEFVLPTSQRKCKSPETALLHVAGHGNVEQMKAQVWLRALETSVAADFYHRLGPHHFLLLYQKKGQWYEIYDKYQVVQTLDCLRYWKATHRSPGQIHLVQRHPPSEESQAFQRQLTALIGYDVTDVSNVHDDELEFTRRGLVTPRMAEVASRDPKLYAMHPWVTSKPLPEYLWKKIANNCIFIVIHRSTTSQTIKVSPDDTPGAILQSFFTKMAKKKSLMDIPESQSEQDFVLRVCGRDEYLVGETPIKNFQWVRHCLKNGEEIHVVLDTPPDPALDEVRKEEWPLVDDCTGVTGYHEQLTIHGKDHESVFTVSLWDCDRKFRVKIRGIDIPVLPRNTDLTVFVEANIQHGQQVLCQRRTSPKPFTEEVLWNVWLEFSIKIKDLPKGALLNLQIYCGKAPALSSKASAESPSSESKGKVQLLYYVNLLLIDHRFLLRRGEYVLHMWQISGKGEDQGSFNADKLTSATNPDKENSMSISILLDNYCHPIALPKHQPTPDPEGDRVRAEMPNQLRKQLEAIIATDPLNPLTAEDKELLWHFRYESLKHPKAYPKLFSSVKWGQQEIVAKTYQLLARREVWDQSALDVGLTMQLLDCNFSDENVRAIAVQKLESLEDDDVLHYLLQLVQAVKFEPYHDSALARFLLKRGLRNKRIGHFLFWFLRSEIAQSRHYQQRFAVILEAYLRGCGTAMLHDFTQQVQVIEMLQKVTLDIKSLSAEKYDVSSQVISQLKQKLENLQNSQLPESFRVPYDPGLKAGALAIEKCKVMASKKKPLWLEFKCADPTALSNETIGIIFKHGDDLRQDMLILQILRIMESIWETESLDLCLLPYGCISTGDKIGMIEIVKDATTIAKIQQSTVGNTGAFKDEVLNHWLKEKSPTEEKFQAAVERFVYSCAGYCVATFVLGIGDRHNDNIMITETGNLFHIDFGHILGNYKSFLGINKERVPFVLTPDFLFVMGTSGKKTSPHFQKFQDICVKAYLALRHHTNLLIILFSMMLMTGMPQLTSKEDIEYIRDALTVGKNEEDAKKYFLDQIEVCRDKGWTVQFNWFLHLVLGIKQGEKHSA", "details": "summarized from Selleck and Apexbio; read-out: IC50 of PI3K Isoforms, p110γ; cited from earlier work"}, "p38δ": {"molecular_target": "T2, p38δ (Homo sapiens, UniProt O15264)", "T2 sequence (O15264 1-365)": "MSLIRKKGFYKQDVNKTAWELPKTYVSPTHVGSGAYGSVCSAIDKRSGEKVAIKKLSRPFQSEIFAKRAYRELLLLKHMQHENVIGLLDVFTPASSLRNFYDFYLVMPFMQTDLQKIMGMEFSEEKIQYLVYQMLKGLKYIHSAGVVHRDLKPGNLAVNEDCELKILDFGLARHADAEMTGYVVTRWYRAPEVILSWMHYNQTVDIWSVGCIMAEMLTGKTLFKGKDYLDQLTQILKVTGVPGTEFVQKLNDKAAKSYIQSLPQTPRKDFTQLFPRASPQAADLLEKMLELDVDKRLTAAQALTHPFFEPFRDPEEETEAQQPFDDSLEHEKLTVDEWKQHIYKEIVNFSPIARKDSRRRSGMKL", "assay": "Radiometric in vitro kinase assay (SignalChem), p38 δ", "format": "biochemical", "set-up": "purchased SignalChem (assay service)", "details": "50 nM", "description": "(§1) Radiometric in vitro kinase assay: Radiometric in vitro kinase assay was performed by [sequence]"}, "p38 γ": {"molecular_target": "T3, p38 γ (Homo sapiens, UniProt P53778)", "T3 sequence (P53778 1-367)": "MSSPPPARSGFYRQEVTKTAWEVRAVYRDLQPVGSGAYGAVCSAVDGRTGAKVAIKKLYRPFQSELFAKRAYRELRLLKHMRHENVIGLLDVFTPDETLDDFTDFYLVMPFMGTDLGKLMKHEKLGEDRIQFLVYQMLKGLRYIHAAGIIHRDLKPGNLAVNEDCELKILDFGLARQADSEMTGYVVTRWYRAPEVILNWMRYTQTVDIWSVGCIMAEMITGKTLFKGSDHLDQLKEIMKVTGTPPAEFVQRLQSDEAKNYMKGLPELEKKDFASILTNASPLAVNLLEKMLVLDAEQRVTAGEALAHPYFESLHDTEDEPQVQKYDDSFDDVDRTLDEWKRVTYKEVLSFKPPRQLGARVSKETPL", "assay": "Radiometric in vitro kinase assay (SignalChem), p38 γ", "format": "biochemical", "set-up": "purchased SignalChem (assay service)", "details": "200 nM", "description": "as §1"}}, "data": [{"smiles": "Cc1ccc([N+](=O)[O-])cc1S(=O)(=O)N(C)/N=C/c1cnc2ccc(Br)cn12", "note": "[Compound 1]", "values": [{"measurement": "dose-dependent inhibition of kinase activity", "setting": "[1]", "value": "not"}, {"measurement": "cell viability", "setting": "Hut78 cells [2]; Hut78, 100 nM", "value": "significantly reduced viability"}, {"measurement": "effect on viability of Hut78 cells", "setting": "Hut78 cells [2]; varying concentrations, 72 hr", "value": "dose-dependent inhibition of cell viability"}, {"measurement": "cell viability", "setting": "SS patient cells", "value": "significantly reduced viability"}, {"measurement": "Activation z-score", "setting": "Hut78 cells [3]; IL-6 Signaling", "value": "−3.109"}, {"measurement": "Activation z-score", "setting": "Hut78 cells [3]; NF-kB signaling", "value": "−3.623"}, {"measurement": "Activation z-score", "setting": "Hut78 cells [3]; PI3K signaling", "value": "−3.108"}, {"measurement": "Activation z-score", "setting": "Hut78 cells [3]; PI3KI/AKT signaling", "value": "−0.63"}, {"measurement": "Activation z-score", "setting": "Hut78 cells [3]; PTEN", "value": 1.25}, {"measurement": "Activation z-score", "setting": "Hut78 cells [3]; Role of NFAT in regulation of the immune response", "value": "−3.962"}, {"measurement": "Activation z-score", "setting": "Hut78 cells [3]; Th1 pathway", "value": "−3.533"}, {"measurement": "Activation z-score", "setting": "Hut78 cells [3]; Th2 pathway", "value": "−2.236"}, {"measurement": "Activation z-score", "setting": "Hut78 cells [3]; Wnt/B-catenin signaling", "value": 1.152}, {"measurement": "mRNA level of p38 gamma", "setting": "p38γ", "value": "reduces the mRNA level"}, {"measurement": "IC50", "setting": "PI3K p110γ", "value": 0.076, "unit": "µM"}, {"measurement": "inhibition at 0.05 µM", "setting": "p38δ", "value": 5.4, "unit": "%"}, {"measurement": "inhibition at 0.2 µM", "setting": "p38 γ", "value": 59, "unit": "%"}]}]}
